US20250332176A1, “TREATMENT FOR FIBROSIS AND INHIBITION OF FIBROSIS” (GALMED RESEARCH AND DEVELOPMENT LTD, priority 2022, published 2025)
“Also recorded” adds a separate entry of the source.

How the values were obtained:
[1] = test system: Wistar rats; assay: Thioacetamide (TAA)-induced fibrosis, model for hepatic cirrhosis; type: in vivo; conditions: 5 mg/kg, co-administered with TAA during 10 weeks
Method: Liver fibrosis was induced in Wistar rats by intraperitoneal injections of TAA (20 mg/100 gr body weight) twice per week during 10 weeks. I.p. application of TAA results in hepatic centrolobular necrosis, elevated transaminase activity and robust liver fibrosis. Treatment groups further included co-administration of Aramchol™ (1 or 5 mg/kg orally) or obaticholic acid (OCA, 5 mg/kg). A control group of saline-treated rats (in the absence of TAA administration) was further included. Rats were then sacrificed, and livers were observed macroscopically for signs of cirrhosis and necrotic lesions, and microscopically, following Masson Goldner staining. The fibrosis score, calculated at a scale of 0-4, was determined for each sample, wherein 0 indicates no fibrosis and 4 indicates advanced fibrosis and cirrhosis.

[2] = test system: 0.1MCD-fed mice; assay: 0.1% methionine- and choline-deficient (0.1MCD) diet mouse model of NASH; type: in vivo
Excerpt: The study described below investigates the mechanism of action of Aramchol™ and its potential effect on fibrosis using the 0.1% methionine- and choline-deficient (0.1MCD) diet mouse model of NASH.
C57BI/6 were fed the Methionine and Choline Deficient (MCD) and control diet and were sacrificed after 4 weeks. The MCD diet induces aminotransferase elevation and changes in hepatic histological features, characterized by steatosis, local inflammation, hepatocyte necrosis and fibrosis. These changes occur rapidly and are morphologically similar to those observed in human NASH. In this study the MCD diet contained 0.1% methionine to minimize and stabilize weight loss. At the end of the second week, after verification of established NASH, 0.1MCD-fed mice were treated orally by gavage with Aramchol™ (5 mg/Kg/day) or vehicle (n=10, each condition). Control diet-fed mice were also treated with vehicle for same duration (n=10). At the end of the experiment, blood and liver samples were obtained. A diagram of the experimental design is shown below: […]

[3] = test system: human NAFLD; assay: 3-month phase 2a human NAFLD study; type: in vivo
[4] = Phase 2 ARAMCHOL 003 repeat dose plasma exposure in patients; type: in vivo, human; conditions: for AUC/Dose / Relative bioavailability (AUC/Dose normalized to 30 mg HV data) / AUC at 84 day: patients; for AUC/Dose / Relative bioavailability (AUC/Dose normalized to 30 mg HV data): D84; for AUC at 84 day: human, plasma, oral
Method: Table 1 summarizes the reported plasma exposure from three studies-single dose Phase I in healthy volunteers (30-900 mg, AUC=AUCinf); Phase II ARAMCHOL™ 003 repeat dose study (AUC on D84 from 100 & 300 mg QD), Phase IIb Cmin on D84 (400 and 600 mg QD).
Exposure in patients is also sub-proportional from 100 to 300 mg. […] This may be due to the use of a tablet formulation in the patient study versus the powder/suspension in healthy volunteers or may simply reflect a high degree of inter-subject variability (typically exposure CV is >50% within a study group).

[5] = Modelling and simulation of 300 mg BID and 600 mg QD doses in patients (Phoenix 64, single compartment); parameters: species or system human; conditions: correction for sub-proportional PK
Method: Given the sub-proportional exposure generally seen, splitting the same total daily dose into two BID doses is likely to increase plasma AUC. The aim of this analysis was to model this behavior.
The 300 mg data on day 1 and day 84 in patients (Phase 2 ARAMCHOL™ 003) has been modelled in Phoenix 64@ assuming single compartment pharmacokinetics (parameterized by Cl and V) and first order absorption at a rate Ka with a delay, Tlag. The fitted model parameters all have a CV<25% and the predicted concentration data reasonably capture the observed data as shown in FIGS. 13A-13C.
To predict exposure at 600 mg, a correction for sub-proportional PK (lower bioavailability at higher dose) has been made assuming the same non-linearity at observed in healthy volunteers.

[6] = test system: pts with pre-diabetes or diabetes and biopsy-proven NASH; assay: Global phase 2b randomized placebo-controlled ARREST trial, one-year results; type: in vivo, human
Method: Overweight/obese pts with pre-diabetes or diabetes and biopsy-proven NASH (with NAS≥4; F<4) were included. Liver biopsy and liver fat measurement by MR spectroscopy (LF-MRS) were performed at baseline and week 52. Both read centrally. The primary endpoint was the absolute change from baseline in LF-MRS (600 mg vs. placebo, PLB; mixed model repeated measures). Key secondary endpoints included: NASH resolution without fibrosis worsening, ≥1 stage fibrosis reduction without NASH worsening and ALT reduction. 247 pts from 11 countries (US, Europe, Latin America) were randomized 2:2:1 to Aramchol™ 400 mg QD (N=101), 600 mg QD (N=98) or PLB (N=48). At baseline: 65% females, mean age 54.4 yrs, BMI 32.7 kg/m2, HbA1c 6.6%±1.0% (mean±SD), LF-MRS 28.5%±11.7% (mean±SD); 60% fibrosis stage 2-3 and NAS 5.12±1.00 (mean±SD). 89% of pts completed the study. The results of the study are summarized in FIGS. 16A-16B to FIGS.-20A-20B.

[7] = 5 mg/Kg/day orally by gavage from end of second week to week 4
[8] = 5 mg/Kg/day orally by gavage, liver

CCCCCCCCCCCCCCCCCCCC(=O)N[C@H]1CC[C@@]2(C)[C@@H](C1)C[C@@H](O)[C@@H]1[C@@H]2C[C@H](O)[C@]2(C)[C@@H]([C@H](C)CCC(=O)O)CC[C@@H]12 [Aramchol™, 3β-arachidylamido-7α, 12α-dihydroxy-5β-cholan-24-oic acid]
TAA induced fibrosis [1]: significantly prevented
development of necrosis and cirrhosis (macroscopic) [1]: reduced significantly; also recorded: significantly inhibited
fibrotic score and collagen distribution in the tissue (Masson Goldner staining) ([1]; score scale 0-4): reduced significantly
hepatic content of diglycerides (DG) and TG ([2]; 5 mg/Kg/day orally by gavage): reduction
GSH/GSSG ratio [2, 7]: elevates; also recorded: normalization
collagen in the liver (liver extract) [2, 7]: significantly down regulates
fibrosis in the liver (sirius red) [2, 7]: significantly down regulates/normalizes
glutathione in liver [2, 7]: significantly up regulates
infiltration and activation status of macrophages in the liver (F4/80, CD64) [2, 7]: significantly down regulates/normalizes
steatosis in the liver (Sudan III) [2, 7]: significantly down regulates
FA(16:1)/FA(16:0) ratio [2, 8]: marked decrease
SCD1 activity [2, 8]: reduced
SCD1 expression [2, 8]: marked decrease
content of total oxFA including oxLA [2, 8]: marked reduction
total content of monounsaturated FA (MUFA) [2, 8]: marked decrease
hepatic fat [3]: reduced
AUC/Dose ([4]; 100 mg QD repeat dose): 197 ng/mL · h/(mg/kg)
Relative bioavailability (AUC/Dose normalized to 30 mg HV data) ([4]; 100 mg QD repeat dose): 0.50
steady-state AUC in patients lower than AUCinf from a single dose in healthy volunteers ([4]; 300 mg): approximately 2 fold
AUC/Dose ([4]; 300 mg QD repeat dose): 110 ng/mL · h/(mg/kg)
Relative bioavailability (AUC/Dose normalized to 30 mg HV data) ([4]; 300 mg QD repeat dose): 0.28
AUC at 84 day ([4]; 100 mg QD repeat dose, AUC on D84): 19.7 µg·h/mL
AUC at 84 day ([4]; 300 mg QD repeat dose, AUC on D84 (steady-state)): 33 µg·h/mL
exposure CV within a study group ([4]; typically, inter-subject variability): > 50%
relative bioavailability at 600 mg compared to 300 mg [5]: approximately 0.75 fold
pts progressed to cirrhosis ([6]; 400 mg QD, week 52): 7.5%
pts with ≥5% absolute reduction in liver fat ([6]; 400 mg QD, week 52): 37%
liver fat by MR spectroscopy (LF-MRS), absolute change from baseline vs PLB ([6]; 400 mg QD, week 52, p=0.045): significantly reduced
effect on ballooning (improvement ≥1 point; ballooning 0 at end of study) ([6]; 600 mg): statistically significant effect
pts progressed to cirrhosis ([6]; 600 mg QD, week 52): 1.3%
liver fat by MR spectroscopy (LF-MRS), absolute change from baseline vs PLB ([6]; 600 mg QD, week 52, p<0.066): significantly reduced
pts with NASH resolution without fibrosis worsening ([6]; 600 mg QD, week 52, vs 5.0% PLB): 16.7%
pts with ≥1 stage fibrosis reduction without NASH worsening ([6]; 600 mg QD, week 52, vs 17.5% PLB (p=0.21)): 29.5%
pts with ≥5% absolute reduction in liver fat ([6]; 600 mg QD, week 52, vs 24% on PLB (p<0.028)): 47%
OR for NASH resolution without fibrosis worsening vs PLB ([6]; 600 mg QD, 95% CI: 0.99-22.66, p=0.051): 4.74
Discontinuation due to adverse events (AE) ([6]; 1-year treatment): < 5%
serious AE, pts ([6]; 1-year treatment, without a difference between arms): 10%
ALT vs PLB ([6]; both doses (400 mg and 600 mg QD), p<0.001, dose response): significantly reduced
HbA1c vs PLB ([6]; both doses (400 mg and 600 mg QD), p<0.007, dose response): significantly reduced
AST vs PLB ([6]; both doses (400 mg and 600 mg QD), p=0.002, dose response): significantly reduced
safety and tolerability ([6]; one year): excellent safety and tolerability
